Structures are written as SMILES.

The target in the first experiment is Somatostatin receptor. Description: Displacement of [125I]SRIF-14 from SSTR of rat AR42J cell membranes. The note with it: ar-42j. Details: species or system Membrane.
As to `C[C@@H](O)[C@@H]1NC(=O)[C@H](CCCCN)NC(=O)[C@H](Cc2c[nH]c3ccccc23)NC(=O)[C@H](Cc2ccc(O)cc2)NC(=O)[C@@H](Cc2ccccc2)N(C)C(=O)[C@H](CCS)NC1=O`, the concentration for half-maximal inhibition (IC50) is 400 pM.

`CC(C)[C@@H]1NC(=O)[C@H](CCCCN)NC(=O)[C@H](Cc2c[nH]c3ccccc23)NC(=O)[C@H](Cc2ccc(O)cc2)NC(=O)[C@@H](Cc2ccccc2)N(C)C(=O)[C@H](CCS)NC1=O` registered an IC50 of 1500 pM. Take `C[C@@H](O)[C@@H]1NC(=O)[C@H](CCCCN)NC(=O)[C@H](Cc2c[nH]c3ccccc23)NC(=O)[C@H](Cc2ccc(O)cc2)NC(=O)[C@@H](CCS)NC(=O)[C@H](Cc2ccccc2)N(C)C1=O`: the concentration for half-maximal inhibition (IC50) was found to be 23700 pM. The same measure, in the same setting: the value for `C[C@@H](O)[C@@H]1NC(=O)[C@H](CCCCN)NC(=O)[C@H](Cc2c[nH]c3ccccc23)NC(=O)[C@H](Cc2ccc(O)cc2)NC(=O)[C@@H](CCS)N(C)C(=O)[C@H](Cc2ccccc2)NC1=O` was 100 pM; that for `CC(C)[C@@H]1NC(=O)[C@H](CCCCN)NC(=O)[C@H](Cc2c[nH]c3ccccc23)NC(=O)[C@H](Cc2ccc(O)cc2)NC(=O)[C@@H](CCS)N(C)C(=O)[C@H](Cc2ccccc2)NC1=O` was 700 pM.

The next experiment has as its target Somatostatin receptor. Description: Displacement of [125I-Tyr-11]-SRIF from SSTR of human NCI-H69 cell membranes.
Settings: not given
For `C[C@@H](O)[C@H](NC(=O)CSCC[C@H]1C(=O)N[C@@H](Cc2ccc(O)cc2)C(=O)N[C@H](Cc2c[nH]c3ccccc23)C(=O)N[C@@H](CCCCN)C(=O)N[C@@H]([C@@H](C)O)C(=O)N[C@@H](Cc2ccccc2)C(=O)N1C)C(=O)NCC(=O)NCC(=O)N[C@@H](CS)C(N)=O`, the half-inhibitory concentration (IC50) is 1600 pM.

Consider `C[C@@H](O)[C@H](NC(=O)[C@H](CS)NC(=O)[C@H](Cc1ccc(N)cc1)NC(=O)[C@@H](N)CNC(=O)CSCC[C@H]1C(=O)N[C@@H](Cc2ccc(O)cc2)C(=O)N[C@H](Cc2c[nH]c3ccccc23)C(=O)N[C@@H](CCCCN)C(=O)N[C@@H]([C@@H](C)O)C(=O)N[C@@H](Cc2ccccc2)C(=O)N1C)C(=O)O`, for which the half-maximal inhibitory concentration (IC50) came out at 640 pM. The same measure, in the same setting: the value for `C[C@@H](O)[C@H](NC(=O)[C@H](CS)NC(=O)[C@H](Cc1ccc(N)cc1)NC(=O)[C@@H](N)CNC(=O)CSCC[C@H]1C(=O)N[C@@H](Cc2ccc(O)cc2)C(=O)N[C@H](Cc2c[nH]c3ccccc23)C(=O)N[C@@H](CCCCN)C(=O)N[C@@H]([C@@H](C)O)C(=O)N[C@@H](Cc2ccccc2)C(=O)N1C)C(=O)N[C@@H](CO)C(=O)O` was 200 pM; that for `C[C@@H](O)[C@@H]1NC(=O)[C@H](CCCCN)NC(=O)[C@@H](Cc2c[nH]c3ccccc23)NC(=O)[C@H](Cc2ccc(O)cc2)NC(=O)[C@H](CCSCC(=O)NC[C@H](N)C(=O)N[C@@H](Cc2ccc(N)cc2)C(=O)N[C@@H](CS)C(=O)N[C@H](CO)[C@@H](C)O)N(C)C(=O)[C@H](Cc2ccccc2)NC1=O` was 500 pM; that for `C[C@@H](O)[C@@H]1NC(=O)[C@H](CCCCN)NC(=O)[C@@H](Cc2c[nH]c3ccccc23)NC(=O)[C@H](Cc2ccc(O)cc2)NC(=O)[C@H](CCSCC(=O)NC[C@H](N)C(=O)N[C@@H](CO)C(=O)N[C@@H](CS)C(=O)N[C@H](CO)[C@@H](C)O)N(C)C(=O)[C@H](Cc2ccccc2)NC1=O` was 1600 pM.

On to `C[C@@H](O)[C@@H]1NC(=O)[C@H](CCCCN)NC(=O)[C@@H](Cc2c[nH]c3ccccc23)NC(=O)[C@H](Cc2ccc(O)cc2)NC(=O)[C@H](CCSCC(=O)NC[C@H](N)C(=O)N[C@@H](CCCCN)C(=O)N[C@@H](CS)C(=O)N[C@H](CO)[C@@H](C)O)N(C)C(=O)[C@H](Cc2ccccc2)NC1=O`, for which the half-maximal inhibitory concentration (IC50) came out at 350 pM.

The record behind these values is ChEMBL document CHEMBL1142948, “Somatostatin receptor-binding peptides suitable for tumor radiotherapy with Re-188 or Re-186. Chemistry and initial biological studies” (J Med Chem, 2007).
